# Source: patent US8859494B2, “Spirocyclically substituted 1,3-propane dioxide derivatives, processes for preparation thereof and use thereof as a medicament” (Sanofi, priority 2010, dated 2014)
# Biological target: T1, GPCR GPR40 (Rattus norvegicus, UniProt Q8K3T4)
# T1 construct: expressed in transfected cells; host or cells: HEK293
# Experiment: In vitro FLIPR assay with recombinant cells which express the GPCR GPR40
# Format: cell-based
# Settings: recombinant HEK293 cells expressing GPR40; agonist-induced change in intracellular Ca2+ (Fluo-4, FLIPR); 100% = 10 μM reference agonist linoleic acid
# Procedure: In Vitro FLIPR Assay with Recombinant Cells which Express the GPCR GPR40
# Function-testing assays were performed by means of the FLIPR technique (“Fluorescence Imaging Plate Reader”, Molecular Devices Corp.). For this purpose, agonist-induced changes were determined in the intracellular concentration of Ca^2+ in recombinant HEK293 cells which expressed the GPCR GPR40.
# For the studies, cells were sown into 96-well microtiter plates (60 000 cells/well) and left to grow overnight. The medium was removed and the cells were incubated in buffer which contains the fluorescent dye Fluo-4. After this loading with dye, the cells were washed, test substance was added and changes were measured in the intracellular Ca^2+ concentration in the FLIPR instrument. Results were presented as the percentage change relative to the control (0%: no test substance added; 100%: 10 μM reference agonist linoleic acid added) and used to calculate dose/effect curves, and EC50 values were determined.
# T1 sequence (Q8K3T4 whole entry): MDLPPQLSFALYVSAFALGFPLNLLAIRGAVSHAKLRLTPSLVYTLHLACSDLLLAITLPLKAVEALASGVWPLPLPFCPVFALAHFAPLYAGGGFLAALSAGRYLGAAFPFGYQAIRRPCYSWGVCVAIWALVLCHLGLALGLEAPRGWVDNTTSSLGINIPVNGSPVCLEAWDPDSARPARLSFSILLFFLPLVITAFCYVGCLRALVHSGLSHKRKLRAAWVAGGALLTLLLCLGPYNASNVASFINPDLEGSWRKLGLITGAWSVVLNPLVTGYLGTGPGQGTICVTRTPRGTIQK
row,SMILES,EC50
1,"CC#CC(CC(=O)O)c1ccc(OCC2(COc3ccc(C(F)(F)F)cc3)CC2)cc1 (stereo not drawn) [Example 2, 3-{4-[1-(4-Trifluoromethylphenoxymethyl)cyclopropylmethoxy]phenyl}hex-4-ynoic acid]",370 nM
2,"CC#CC(CC(=O)O)c1ccc(OCC2(COc3ccc(C(F)(F)F)cc3Cl)COC2)cc1 (stereo not drawn) [Example 4, 3-{4-[3-(2-Chloro-4-trifluoromethylphenoxymethyl)oxetan-3-ylmethoxy]phenyl}hex-4-ynoic acid]",2550 nM
3,"CC#CC(CC(=O)O)c1ccc(OCC2(COc3ccc(C(F)(F)F)cc3)CCC2)cc1 (stereo not drawn) [Example 6, 3-{4-[1-(4-Trifluoromethylphenoxymethyl)cyclobutylmethoxy]phenyl}hex-4-ynoic acid]",1320 nM
4,"CC#CC(CC(=O)O)c1ccc(OCC2(COc3ccccc3)CCC2)cc1 (stereo not drawn) [Example 8, 3-[4-(1-Phenoxymethylcyclobutylmethoxy)phenyl]hex-4-ynoic acid]",450 nM
5,"CC#CC(CC(=O)O)c1ccc(OCC2(COc3cc(C(F)(F)F)cc(C(F)(F)F)c3)CC2)cc1 (stereo not drawn) [Example 9, 3-{4-[1-(3,5-Bis(trifluoromethyl)phenoxymethyl)cyclopropylmethoxy]phenyl}hex-4-ynoic acid]",1660 nM
6,"CC#CC(CC(=O)O)c1ccc(OCC2(COc3ccc(C#N)c(Cl)c3)CC2)cc1 (stereo not drawn) [Example 12, 3-{4-[1-(3-Chloro-4-cyanophenoxymethyl)cyclopropylmethoxy]phenyl}hex-4-ynoic acid]",140 nM
7,"CC#CC(CC(=O)O)c1ccc(OCC2(COc3ccc(C(F)(F)F)nc3)CC2)cc1 (stereo not drawn) [Example 13, 3-{4-[1-(6-Trifluoromethylpyridin-3-yloxymethyl)cyclopropylmethoxy]phenyl}hex-4-ynoic acid]",710 nM
8,"CC#CC(CC(=O)O)c1ccc(OCC2(COc3ccc(C(F)(F)F)cn3)CC2)cc1 (stereo not drawn) [Example 14, 3-{4-[1-(5-Trifluoromethylpyridin-2-yloxymethyl)cyclopropylmethoxy]phenyl}hex-4-ynoic acid]",170 nM
9,"CC#CC(CC(=O)O)c1ccc(OCC2(COc3ccc(C(F)(F)F)cc3Cl)CC2)cc1 (stereo not drawn) [Example 15, 3-{4-[1-(2-Chloro-4-trifluoromethylphenoxymethyl)cyclopropylmethoxy]phenyl}hex-4-acid]",1580 nM
10,"COC(CC(=O)O)c1ccc(OCC2(COc3ccc(C(F)(F)F)cn3)CC2)cc1 (stereo not drawn) [Example 16, 3-Methoxy-3-{4-[1-(5-trifluoromethylpyridin-2-yloxymethyl)cyclopropylmethoxy]phenyl}-propionic acid]",2460 nM
11,"CC#CC(CC(=O)O)c1ccc(OCC2(COc3ccccc3C)CC2)cc1 (stereo not drawn) [Example 18, 3-[4-(1-o-Tolyloxymethylcyclopropylmethoxy)phenyl]hex-4-ynoic acid]",60 nM
12,"CC#CC(CC(=O)O)c1ccc(OCC2(COc3ccccc3F)CC2)cc1 (stereo not drawn) [Example 21, 3-{4-[1-(2-Fluorophenoxymethyl)cyclopropylmethoxy]phenyl}hex-4-ynoic acid]",110 nM

# The remaining lines, values ahead:
row,EC50,SMILES
1,730 nM,"CC#CC(CC(=O)O)c1ccc(OCC2(COc3cccc(C(C)(C)C)c3)CC2)cc1 (stereo not drawn) [Example 1, 3-{4-[1-(3-tert-Butylphenoxymethyl)cyclopropylmethoxy]phenyl}hex-4-ynoic acid]"
2,290 nM,"CC#CC(CC(=O)O)c1ccc(OCC2(COc3cccc(Cl)c3)CC2)cc1 (stereo not drawn) [Example 3, 3-{4-[1-(3-Chlorophenoxymethyl)cyclopropylmethoxy]phenyl}hex-4-ynoic acid]"
3,2560 nM,"CC#CC(CC(=O)O)c1ccc(OCC2(COc3cccc(C(C)(C)C)c3)CCC2)cc1 (stereo not drawn) [Example 5, 3-{4-[1-(3-tert-Butylphenoxymethyl)cyclobutylmethoxy]phenyl}hex-4-ynoic acid]"
4,1540 nM,"CC#CC(CC(=O)O)c1ccc(OCC2(COc3cccc(C)c3)CCC2)cc1 (stereo not drawn) [Example 7, 3-[4-(1-m-Tolyloxymethylcyclobutylmethoxy)phenyl]hex-4-ynoic acid]"
5,70 nM,"CC#CC(CC(=O)O)c1ccc(OCC2(COc3ccccc3)CC2)cc1 (stereo not drawn) [Example 10, 3-[4-(1-Phenoxymethylcyclopropylmethoxy)phenyl]hex-4-ynoic acid]"
6,150 nM,"CC#CC(CC(=O)O)c1ccc(OCC2(COc3cccc(C)c3)CC2)cc1 (stereo not drawn) [Example 11, 3-[4-(1-m-Tolyloxymethylcyclopropylmethoxy)phenyl]hex-4-ynoic acid]"
7,70 nM,"CC#CC(CC(=O)O)c1ccc(OCC2(COc3ccc(F)cc3)CC2)cc1 (stereo not drawn) [Example 19, 3-{4-[1-(4-Fluorophenoxymethyl)cyclopropylmethoxy]phenyl}hex-4-ynoic acid]"
8,70 nM,"CC#CC(CC(=O)O)c1ccc(OCC2(COc3cccc(F)c3)CC2)cc1 (stereo not drawn) [Example 20, 3-{4-[1-(3-Fluorophenoxymethyl)cyclopropylmethoxy]phenyl}hex-4-ynoic acid]"
9,330 nM,"CC#CC(CC(=O)O)c1ccc(OCC2(COc3ccc(F)c(Cl)c3)CC2)cc1 (stereo not drawn) [Example 22, 3-{4-[1-(3-Chloro-4-fluorophenoxymethyl)cyclopropylmethoxy]phenyl}hex-4-ynoic acid]"
